Data published in ChEMBL document CHEMBL6109139, “Rational Design of the First Dual Agonist at Trace Amine-Associated Receptor 1 and 5-HT2C Receptors Based on Binding Pocket Similarity for the Treatment of Schizophrenia and Alzheimer's Disease-Related Psychosis” (J Med Chem, 2025).
Activity calls are given as the source filed them. The rule behind the calls is not given here.

Assays:
[1] = biological target: T1, Trace amine-associated receptor 1 (Homo sapiens, UniProt Q96RJ0); test: Agonist activity at human TAAR1 extracted from CHO-K1 cell membrane coexpressing AGTRL1/Gi by cAMP assay; format: functional, cell membranes
T1 sequence (Q96RJ0 whole entry): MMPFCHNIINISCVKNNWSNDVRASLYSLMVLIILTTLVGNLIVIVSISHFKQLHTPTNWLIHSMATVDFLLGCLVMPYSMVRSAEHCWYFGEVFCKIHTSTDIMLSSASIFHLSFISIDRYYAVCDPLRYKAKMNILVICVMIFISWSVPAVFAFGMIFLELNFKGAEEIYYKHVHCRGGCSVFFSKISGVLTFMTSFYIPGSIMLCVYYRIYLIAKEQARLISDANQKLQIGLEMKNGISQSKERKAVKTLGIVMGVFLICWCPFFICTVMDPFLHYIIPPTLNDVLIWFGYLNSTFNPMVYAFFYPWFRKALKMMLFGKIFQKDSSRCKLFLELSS

[2] = Plasma protein binding in human assessed as unbound fraction by LC-MS/MS analysis; format: ADME, cell-free
Cytochrome P450 2C9 = Cytochrome P450 2C9 (Homo sapiens, UniProt P11712); test: Inhibition of CYP2C9 in human liver microsomes in presence of NADPH by LC-MS/MS analysis; format: ADME, Microsome
[3] = Ratio of drug concentration in male Sprague-Dawley rat brain to plasma at 5 mg/kg, IG measured after 0.25 hrs by LC-MS/MS analysis; format: ADME, organism-based; conditions: brain and plasma, po, read-out: BPR
[4] = Drug concentration in male Sprague-Dawley rat brain at 5 mg/kg, IG measured after 0.25 hrs by LC-MS/MS analysis; format: ADME, organism-based; conditions: in vivo, po
Mus musculus [5] = test: Antipsychotic activity against DOI-induced head-twitch response in mouse assessed as reduction in head-twitch response administered intragastrically and measured for 30 mins; format: functional, organism-based; conditions: dose 1-10 mg/kg
Mus musculus [6] = test: Antipsychotic activity in amyloid beta (1 to 42) induced hyperlocomotion in mouse model assessed as decrease in total distance traveled at 10 mg/kg by open field test; format: functional, organism-based
[7] = biological target: Trace amine-associated receptor 1 (Rattus norvegicus, UniProt Q923Y9); test: Agonist activity at rat TAAR1; format: functional
[8] = biological target: 5-hydroxytryptamine receptor 2C (Rattus norvegicus, UniProt P08909); test: Agonist activity at rat 5-HT2CR; format: functional
[9] = biological target: 5-hydroxytryptamine receptor 2C (Rattus norvegicus) (UniProt P08909); test: Agonist activity at rat 5-HT2CR by measuring maximum efficacy relative to control; format: functional; conditions: filed as agonist
[10] = biological target: 5-hydroxytryptamine receptor 1A (Homo sapiens) (UniProt P08908); test: Agonist activity at human 5-HT1A expressed in CHO cells coexpressing Galpha15 by measuring maximum efficacy at 2 uM by FLIPR calcium assay relative to control; format: functional, cell-based; conditions: filed as agonist
[11] = biological target: 5-hydroxytryptamine receptor 7 (Homo sapiens, UniProt P34969); test: Agonist activity at recombinant human 5-HT7 expressed in HEK293 cells by measuring maximum efficacy at 2 uM by FLIPR calcium assay relative to control; format: functional, cell-based; conditions: filed as agonist
[12] = biological target: Cannabinoid receptor 1 (Homo sapiens) (UniProt P21554); test: Binding affinity to CB1 (unknown origin) at 10 uM by radioligand binding assay relative to control
MAO-A = MAO-A (Homo sapiens, UniProt P21397); test: Binding affinity to MAO-A (unknown origin) at 10 uM by radioligand binding assay relative to control; conditions: read-out: Activity
[13] = biological target: Delta-type opioid receptor (Homo sapiens) (UniProt P41143); test: Binding affinity to op-delta receptor (unknown origin) at 10 uM by radioligand binding assay relative to control
[14] = biological target: Kappa-type opioid receptor (Homo sapiens) (UniProt P41145); test: Binding affinity to op-kappa receptor (unknown origin) at 10 uM by radioligand binding assay relative to control
[15] = Mutagenicity in Salmonella typhimurium TA102 by Ames test; format: toxicity; conditions: salmonella enterica subsp. enterica serovar typhimurium
[16] = Cardiotoxicity in conscious cynomolgus monkey assessed as change in mean arterial pressure at 3.125 to 12.5 mg/kg, IG measured within 25 hrs; format: toxicity, organism-based, Macaca fascicularis; conditions: in vivo, po, dose 3.125-12.5 mg/kg
[17] = Toxicity in Sprague-Dawley rat assessed as normal spontaneous movement at 2.5 to 7.5 mg/kg, po administered once daily for 4 weeks and measured after 4 weeks; format: organism-based; conditions: in vivo, 1344 h, dose 2.5-7.5 mg/kg, time 8 weeks
[18] = Toxicity in Sprague-Dawley rat assessed as animal death 2.5 to 7.5 mg/kg, po administered once daily for 4 weeks; format: organism-based; conditions: in vivo, 672 h, dose 2.5-7.5 mg/kg
[19] = Toxicity in female Sprague-Dawley rat assessed as suppression of body weight gain at 7.5 mg/kg, po administered once daily for 4 weeks and measured after 4 weeks; format: organism-based; conditions: in vivo, 1344 h, time 8 weeks
[20] = Toxicity in female Sprague-Dawley rat assessed as piloerection at 7.5 mg/kg, po administered once daily for 4 weeks; format: organism-based; conditions: in vivo, 672 h
[21] = Toxicity in female Sprague-Dawley rat assessed as piloerection at 7.5 mg/kg, po administered once daily for 4 weeks and measured after 4 weeks; format: organism-based; conditions: in vivo, 1344 h, time 8 weeks
[22] = Toxicity in male Sprague-Dawley rat assessed as piloerection at 7.5 mg/kg, po administered once daily for 4 weeks and measured after 4 weeks; format: organism-based; conditions: in vivo, 1344 h, time 8 weeks
[23] = Toxicity in male Sprague-Dawley rat assessed as slow respiration at 7.5 mg/kg, po administered once daily for 4 weeks and measured after 4 weeks; format: organism-based; conditions: in vivo, 1344 h, time 8 weeks
[24] = Toxicity in male Sprague-Dawley rat assessed as change in bone marrow smears at 2.5 to 7.5 mg/kg, po administered once daily for 4 weeks and measured after 4 weeks; format: organism-based; conditions: in vivo, 1344 h, dose 2.5-7.5 mg/kg, time 8 weeks
[25] = Toxicity in male Sprague-Dawley rat assessed as change in organ weight at 2.5 to 7.5 mg/kg, po administered once daily for 4 weeks and measured after 4 weeks; format: organism-based; conditions: in vivo, 1344 h, dose 2.5-7.5 mg/kg, time 8 weeks
[26] = Toxicity in male Sprague-Dawley rat assessed as minimal corneal neovascularization at 2.5 to 7.5 mg/kg, po administered once daily for 4 weeks and measured after 4 weeks; format: organism-based; conditions: in vivo, 1344 h, dose 2.5-7.5 mg/kg, time 8 weeks
[27] = Toxicity in male Beagle dog assessed as change in body weight at 0.75 to 2.5 mg/kg, IG administered once daily for 4 weeks and measured after 4 weeks; format: organism-based, Canis lupus familiaris; conditions: in vivo, po, 1344 h, dose 0.75-2.5 mg/kg, time 8 weeks
[28] = Toxicity in female Beagle dog assessed as change in organ ratios at 0.75 to 2.5 mg/kg, IG administered once daily for 4 weeks and measured after 4 weeks; format: organism-based, Canis lupus familiaris; conditions: in vivo, po, 1344 h, dose 0.75-2.5 mg/kg, time 8 weeks
[29] = Toxicity in male Beagle dog assessed as change in organ ratios at 0.75 to 2.5 mg/kg, IG administered once daily for 4 weeks and measured after 4 weeks; format: organism-based, Canis lupus familiaris; conditions: in vivo, po, 1344 h, dose 0.75-2.5 mg/kg, time 8 weeks
[30] = Toxicity in male Beagle dog assessed as minimal decrease activity at 2.5 mg/kg, IG administered once daily for 4 weeks; format: organism-based, Canis lupus familiaris; conditions: in vivo, po, 672 h
[31] = Toxicity in male Beagle dog assessed as somnolence at 2.5 mg/kg, IG administered once daily for 4 weeks and measured after 4 weeks; format: organism-based, Canis lupus familiaris; conditions: in vivo, po, 1344 h, time 8 weeks
[32] = Toxicity in male Beagle dog assessed as minimal decrease activity at 2.5 mg/kg, IG administered once daily for 4 weeks and measured after 4 weeks; format: organism-based, Canis lupus familiaris; conditions: in vivo, po, 1344 h, time 8 weeks

5-hydroxytryptamine receptor 7, sequence (P34969 whole entry): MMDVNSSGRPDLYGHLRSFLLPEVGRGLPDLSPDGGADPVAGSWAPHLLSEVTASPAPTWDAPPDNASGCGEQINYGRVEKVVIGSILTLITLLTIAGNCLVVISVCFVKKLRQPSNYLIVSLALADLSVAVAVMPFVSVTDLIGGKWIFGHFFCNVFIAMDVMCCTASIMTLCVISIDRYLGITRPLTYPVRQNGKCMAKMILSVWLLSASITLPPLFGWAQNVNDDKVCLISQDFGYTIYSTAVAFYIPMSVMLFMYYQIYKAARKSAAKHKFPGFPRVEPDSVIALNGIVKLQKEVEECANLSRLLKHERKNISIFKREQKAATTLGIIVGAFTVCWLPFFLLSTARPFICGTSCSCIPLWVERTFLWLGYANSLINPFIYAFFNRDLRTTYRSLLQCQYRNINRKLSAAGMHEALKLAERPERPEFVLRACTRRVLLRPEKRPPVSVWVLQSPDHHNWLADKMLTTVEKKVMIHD
Kappa-type opioid receptor (Homo sapiens), sequence (P41145 whole entry): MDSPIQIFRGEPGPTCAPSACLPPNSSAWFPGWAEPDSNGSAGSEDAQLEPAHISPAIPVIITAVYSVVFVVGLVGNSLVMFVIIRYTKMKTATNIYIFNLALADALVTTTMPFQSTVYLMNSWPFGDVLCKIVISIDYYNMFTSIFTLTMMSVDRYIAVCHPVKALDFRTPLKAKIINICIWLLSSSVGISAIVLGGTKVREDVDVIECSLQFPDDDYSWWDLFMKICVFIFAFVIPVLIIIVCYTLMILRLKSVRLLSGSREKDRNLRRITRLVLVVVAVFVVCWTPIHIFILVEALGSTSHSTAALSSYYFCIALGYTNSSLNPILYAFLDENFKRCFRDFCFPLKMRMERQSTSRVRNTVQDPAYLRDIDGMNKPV
Cannabinoid receptor 1 (Homo sapiens), sequence (P21554 whole entry): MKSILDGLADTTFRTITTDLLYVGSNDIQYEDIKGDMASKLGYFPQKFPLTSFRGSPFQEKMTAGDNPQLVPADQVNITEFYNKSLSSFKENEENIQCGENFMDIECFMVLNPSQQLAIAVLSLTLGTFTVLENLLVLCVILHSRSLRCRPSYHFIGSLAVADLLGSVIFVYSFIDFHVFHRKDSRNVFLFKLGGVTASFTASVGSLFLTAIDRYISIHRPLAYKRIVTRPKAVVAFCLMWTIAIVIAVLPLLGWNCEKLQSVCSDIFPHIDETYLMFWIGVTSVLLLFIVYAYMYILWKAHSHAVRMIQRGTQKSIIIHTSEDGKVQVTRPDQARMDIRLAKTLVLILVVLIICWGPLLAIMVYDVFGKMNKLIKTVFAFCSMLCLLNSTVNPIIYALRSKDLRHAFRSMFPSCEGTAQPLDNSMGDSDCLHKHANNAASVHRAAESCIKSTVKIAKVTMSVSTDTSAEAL
5-hydroxytryptamine receptor 1A (Homo sapiens), sequence (P08908 whole entry): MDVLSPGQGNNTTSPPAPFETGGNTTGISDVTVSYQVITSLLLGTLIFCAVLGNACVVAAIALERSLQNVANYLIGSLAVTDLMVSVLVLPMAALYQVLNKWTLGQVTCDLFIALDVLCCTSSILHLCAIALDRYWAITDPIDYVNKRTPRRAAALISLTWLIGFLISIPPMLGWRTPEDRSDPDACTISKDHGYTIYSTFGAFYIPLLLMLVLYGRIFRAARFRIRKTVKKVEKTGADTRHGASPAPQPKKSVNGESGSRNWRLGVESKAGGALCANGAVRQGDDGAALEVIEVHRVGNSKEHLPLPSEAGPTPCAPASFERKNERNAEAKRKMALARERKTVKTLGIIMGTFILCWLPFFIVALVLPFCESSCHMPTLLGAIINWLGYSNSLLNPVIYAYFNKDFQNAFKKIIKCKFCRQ
5-hydroxytryptamine receptor 2C, sequence (P08909 whole entry): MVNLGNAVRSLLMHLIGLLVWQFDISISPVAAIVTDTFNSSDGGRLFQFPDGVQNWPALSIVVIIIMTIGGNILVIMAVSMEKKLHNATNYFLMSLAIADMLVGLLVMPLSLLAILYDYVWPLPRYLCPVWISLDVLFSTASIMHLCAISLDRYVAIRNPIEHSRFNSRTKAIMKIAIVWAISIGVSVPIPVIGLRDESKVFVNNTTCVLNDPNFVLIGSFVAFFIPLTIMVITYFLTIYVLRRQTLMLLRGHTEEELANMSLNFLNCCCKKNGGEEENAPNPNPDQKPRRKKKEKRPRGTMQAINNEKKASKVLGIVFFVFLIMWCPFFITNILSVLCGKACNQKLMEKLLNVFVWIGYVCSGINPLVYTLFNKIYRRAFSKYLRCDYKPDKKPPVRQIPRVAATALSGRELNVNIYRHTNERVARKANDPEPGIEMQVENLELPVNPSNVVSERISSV
5-hydroxytryptamine receptor 2C (Rattus norvegicus), sequence (P08909 whole entry): as above
Delta-type opioid receptor (Homo sapiens), sequence (P41143 whole entry): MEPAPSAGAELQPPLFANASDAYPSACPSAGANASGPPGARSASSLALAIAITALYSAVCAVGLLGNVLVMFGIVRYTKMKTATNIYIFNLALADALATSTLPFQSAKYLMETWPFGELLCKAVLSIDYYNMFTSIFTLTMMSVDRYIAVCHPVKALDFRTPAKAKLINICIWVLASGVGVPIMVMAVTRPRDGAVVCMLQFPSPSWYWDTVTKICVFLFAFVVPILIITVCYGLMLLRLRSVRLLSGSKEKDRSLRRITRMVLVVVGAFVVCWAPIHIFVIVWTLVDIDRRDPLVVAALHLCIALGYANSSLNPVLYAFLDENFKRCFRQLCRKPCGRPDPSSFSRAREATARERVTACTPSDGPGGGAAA
Trace amine-associated receptor 1 (Rattus norvegicus, UniProt Q923Y9), sequence (Q923Y9 whole entry): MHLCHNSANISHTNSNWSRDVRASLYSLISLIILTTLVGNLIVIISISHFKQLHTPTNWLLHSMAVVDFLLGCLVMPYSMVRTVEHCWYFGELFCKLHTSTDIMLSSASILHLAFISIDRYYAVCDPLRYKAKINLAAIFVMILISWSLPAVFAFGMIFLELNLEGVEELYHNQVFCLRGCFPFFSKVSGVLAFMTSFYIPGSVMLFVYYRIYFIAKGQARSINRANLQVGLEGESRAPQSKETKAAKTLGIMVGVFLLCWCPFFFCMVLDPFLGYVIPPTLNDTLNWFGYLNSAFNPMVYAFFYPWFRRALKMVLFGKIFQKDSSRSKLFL
Cytochrome P450 2C9, sequence (P11712 whole entry): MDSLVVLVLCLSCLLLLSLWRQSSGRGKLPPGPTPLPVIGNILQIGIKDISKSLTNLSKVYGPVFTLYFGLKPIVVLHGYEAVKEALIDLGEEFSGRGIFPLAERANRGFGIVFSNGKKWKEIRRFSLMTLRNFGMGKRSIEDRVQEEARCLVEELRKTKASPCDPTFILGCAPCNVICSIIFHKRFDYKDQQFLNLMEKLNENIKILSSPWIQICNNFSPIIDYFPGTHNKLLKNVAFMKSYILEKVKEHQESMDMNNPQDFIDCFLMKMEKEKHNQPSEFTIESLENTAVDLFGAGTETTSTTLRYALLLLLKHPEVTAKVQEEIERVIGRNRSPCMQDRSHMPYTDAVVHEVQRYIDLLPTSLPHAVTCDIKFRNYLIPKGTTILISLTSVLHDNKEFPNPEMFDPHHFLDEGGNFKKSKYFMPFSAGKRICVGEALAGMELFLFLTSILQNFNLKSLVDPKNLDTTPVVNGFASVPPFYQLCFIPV
MAO-A, sequence (P21397 whole entry): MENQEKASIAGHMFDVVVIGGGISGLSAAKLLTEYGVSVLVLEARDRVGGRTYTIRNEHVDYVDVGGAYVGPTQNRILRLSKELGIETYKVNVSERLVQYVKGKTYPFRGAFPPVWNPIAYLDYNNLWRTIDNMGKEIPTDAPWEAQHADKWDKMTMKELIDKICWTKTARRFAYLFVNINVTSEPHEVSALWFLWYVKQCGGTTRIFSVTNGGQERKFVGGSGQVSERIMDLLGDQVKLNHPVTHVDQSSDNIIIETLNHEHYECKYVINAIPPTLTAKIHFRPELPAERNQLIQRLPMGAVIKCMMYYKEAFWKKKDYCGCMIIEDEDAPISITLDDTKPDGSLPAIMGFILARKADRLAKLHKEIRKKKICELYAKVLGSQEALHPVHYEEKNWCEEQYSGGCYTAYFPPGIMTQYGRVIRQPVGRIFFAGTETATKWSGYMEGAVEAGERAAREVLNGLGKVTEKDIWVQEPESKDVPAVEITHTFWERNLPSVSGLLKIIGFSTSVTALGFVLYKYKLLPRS

In the case of `c1cc2c(s1)[C@@H]1CNCCN1CC2`, the EC50 [1] is reported as 22 nM, the fraction unbound [2] is reported as 0.668 and the IC50 (Cytochrome P450 2C9) is reported as greater than 50000 nM. For the same compound, the Kp at 0.25 h [3] was 8.45, the Ct [4] was 39250 nmol/kg and the Activity (Mus musculus [5]) was “Dose-dependent-effect”. For the same compound, the Activity (Mus musculus [6]) was “Active”, the EC50 [7] was 682 nM and the EC50 [8] was 70.2 nM. For the same compound, the Emax [9] was 108%, the Emax [10] was 48.3% and the Emax [11] was 65.5%. The Activity [12] was 2.45%, the activity at 10 µM (MAO-A) was 5.33% and the Activity [13] was 15.4%. For the same compound, the Activity [14] was 4.07%, the Activity [15] was “Non-toxic” and the Activity [16] was “Non-toxic”. The Activity [17] was “Non-toxic”, the Activity [18] was “Non-toxic” and the Activity [19] was “Toxic”. For the same compound, the Activity [20] was “Toxic”, the Activity [21] was “Non-toxic” and the Activity [22] was “Non-toxic”. For the same compound, the Activity [23] was “Non-toxic”, the Activity [24] was “Non-toxic” and the Activity [25] was “Non-toxic”. The Activity [26] was “Non-toxic”, the Activity [27] was “Non-toxic” and the Activity [28] was “Non-toxic”. For the same compound, the Activity [29] was “Non-toxic”, the Activity [30] was “Toxic” and the Activity [31] was “Non-toxic”. For the same compound, the Activity [32] was “Non-toxic”.
